Results on 14 compounds are retold here after PMC10908709, “3-styrylcoumarin scaffold-based derivatives as a new approach for leishmaniasis intervention: biological and molecular modeling studies” (Journal of Parasitic Diseases: Official Organ of the Indian …, 2024).

Values joined by “and” are separate entries in the source; they are usually repeats but may differ in a detail not shown here. Equal values may be shown once.

In data set [1] the test system is axenic amastigote forms of L. panamensis. Details: method as in Arango et al. 2010. Particulars: ref Arango et al. 2010; cited from earlier work.
Data set [2] can be described thus: In vitro cytotoxicity, MTT assay. The class given is cell-based. Particulars: human. As to the method: (§1) Cytotoxic activity of the studied compounds was assessed in the human promonocytic U-937 cells (ATCC CRL-1593.2™) based on viability evaluated by the MTT (3-(4,5-dimethylthiazol-2-yl)-2,5-diphenyltetrazolium bromide) assay as described elsewhere (Taylor et al. [2011]). Briefly, U-937 cells grown in tissue flasks were harvested and washed with phosphate buffered saline (PBS) by centrifugation. Cells were counted and adjusted at 1 × 10^6 cells/mL of complete culture medium (RPMI-1640 supplemented with 10% Fetal Bovine Serum-FBS and 1% of antibiotics (100 ug/mL penicillin and 0.1 mg/mL streptomycin). One hundred µL of cell suspension were dispensed into each well of a 96-well cell-culture plate and then 100 µL of two-fold serial dilutions of the compounds (starting at 200 µg/mL) in complete RPMI 1640 medium were added. Plates were incubated at 37 °C, under 5% CO2 atmosphere during 72 h. Then, 10 µL of MTT solution (0.5 mg/mL) were added into each well, and plates were then incubated at 37 °C for 3 h. The formazan crystals were dissolved by adding 100 µL/well of dimethyl sulfoxide and 30 min incubation. Cell viability was determined according to the intensity of color (absorbance) registered as optical densities (O.D) obtained at 570 nm in a Varioskan™ Flash Multimode Reader-ThermoScientific, USA spectrophotometer. Cells cultured in absence of compounds were used as control of viability (negative control), while doxorrubicin was used as control for cytotoxic drugs. Non-specific absorbance was corrected by subtracting the O.D of the blank. Assays were conducted in two independent runs with three replicas per each concentration tested.
(§2) Cytotoxicity was determined according to cell growth (viability) and mortality percentages obtained for each isolated experiment (compounds, doxorubicin and culture medium). Results were expressed as 50 lethal concentrations (LC50), corresponding to the concentration necessary to eliminate 50% of cells, calculated by Probit analysis (Finney [1978]). Percentage of viability was calculated by Eq. 1, where the optical density (O.D) of control corresponds to 100% of viability (cell growth).1 %Mortality=1-O.D Exposed cells/O.D Control cells×100

Data set [3] has as its system intracellular amastigotes of L. (V) panamensis. The data set is described as follows: In vitro antileishmanial activity on intracellular amastigotes (GFP parasites, flow cytometry). The class given is cell-based, Leishmania (Viannia) panamensis. As to conditions: for EC50: read-out: Anti-leishmanial activity on intracellular amastigotes EC50 (converted); for SI (selectivity index = LC50/EC50): U-937 LC50 / amastigote EC50. How it is done: The activity of compounds was evaluated on intracellular amastigotes of L. (V) panamensis transfected with the green fluorescent protein gene (MHOM/CO/87/UA140-EGFP) (Pulido et al. [2012]). The effect of each compound was determined according to the inhibition of the infection evidenced by both, decrease of the infected cells and decrease of intracellular parasite amount. Briefly, U-937 human cells at a concentration of 3 × 10^5 cells/mL in RPMI 1640 containing 0.1 μg/mL of phorbol-12-myristate-13-acetate (PMA) were dispensed into each one of a 24-well cell culture plate and then infected with 5 day-old promastigotes in a 15:1 parasites per cell ratio. Plates were incubated at 34 °C, 5% CO2 during 3 h and cells were washed two times with PBS to eliminate non internalized parasites. One mL of fresh complete RPMI 1640 medium supplemented with 10% FBS and 1% antibiotics was added into each well, cells were incubated again to guarantee multiplication of intracellular parasites. After 24 h of infection, culture medium was replaced by fresh culture medium containing each compound at 50–6.12 and 1.56 μg/mL and plates were incubated at 37 °C, 5% CO2. After 72 h, inhibition of the infection was determined. For this, cells were removed from the bottom plate with a trypsin/EDTA (250 mg) solution; recovered cells were centrifuged at 1100 rpm during 10 min at 4 °C, the supernatant was discarded and cells were washed with 1 mL of cold PBS and centrifuged at 1100 rpm during 10 min at 4 °C. The supernatant was discarded and cells were suspended in 500 μL of PBS and analyzed by flow cytometry (FC 500MPL, Cytomics, Brea, CA, US). All determinations for each compound including standard drugs were carried out by triplicate, in two independent experiments. Activity of the tested compounds was carried out in parallel with infection progress in culture medium alone and in culture medium with amphotericin B as antileishmanial drugs (positive controls).
Antileishmanial activity was determined according to percentage of infected cells and parasite amount obtained for each experimental condition by flow cytometer. The percentage of infected cells was determined as the number of positive events by green fluorescence (parasites) in y-axis and Forward Scatte in x-axis. Then, the parasitic load in those infected cells was determined by a histogram of the mean fluorescence intensity (MFI) of those fluorescent parasites (Pulido et al. [2012]).
Parasitemia inhibition was calculated by Eq. 2, where the MFI of control corresponds to 100% of parasitemia. In turn, inhibition percentage corresponds to 100% Parasitemia.
Background: In flow cytometry, cells or beads pass a laser one at a time.

For data set [4] the test system is unchanged. The data set is described as above. The class given is cell-based, Leishmania (Viannia) panamensis. Particulars: for inhibition at 20 µg/mL: U-937, 72 h, infected U-937 cells, read-out: Inhibition intracellular amastigotes growth (%).
The test system of data set [5] is CHO-K1 cells. Details: method as in Herrera et al. 2018. Particulars: previous study; ref Herrera et al. 2018; cited from earlier work.
Data set [6] relates to SW480 cells. Details: method as in Herrera et al. 2018. As to conditions: previous study; ref Herrera et al. 2018; cited from earlier work.
Data set [7] deals with promastigote forms of L. amazonensis. Details: method as in Rosa et al. 2017. Particulars: ref Rosa et al. 2017; read-out: IC50 against promastigote forms of L. amazonensis; cited from earlier work.
The subject of data set [8] is amastigote forms of L. amazonensis. Details: method as in Rosa et al. 2017. Particulars: ref Rosa et al. 2017; read-out: IC50 against amastigote forms of L. amazonensis; cited from earlier work.
For data set [9], the system named is intracellular amastigotes of L. donovani. Also noted: method as in Pierson et al. 2010. Particulars: ref Pierson et al. 2010; cited from earlier work.
In data set [10] the test system is U-937 cells. The data set is described as follows: In vitro cytotoxicity, MTT assay. It is filed as cell-based. Particulars: 72 h, MTT. As to the method: as §1, §2
In general terms: Tetrazolium dyes change colour on reduction, which living cells bring about.

`C=C(C)[C@H]1O[C@@H]1c1c(OC[C@H]2OC2(C)C)ccc2ccc(=O)oc12` (relative stereo) [B]: the “EC50 against axenic amastigote forms of L. panamensis” value (shortened to “EC50 against axenic amastigote forms”) in data set [1] is on record as 9.9 µg/mL.
A word on the EC50: it is the concentration that produces a half-maximal response. What is called inhibition of growth is how much of the control response was suppressed. Lower therefore signals a weak effect. Take `C[C@@H]1[C@H](O)[C@@H](C)/C=C/C=C/C=C/C=C/C=C/C=C/C=C/[C@H](O[C@@H]2O[C@H](C)[C@@H](O)[C@H](N)[C@@H]2O)C[C@@H]2O[C@](O)(C[C@@H](O)C[C@@H](O)[C@H](O)CC[C@@H](O)C[C@@H](O)CC(=O)O[C@H]1C)C[C@H](O)[C@H]2C(=O)O` [Amphotericin B, reference compound]: in data set [2], the CC50 at 72 h was 36.1 µg/mL and 39.1 µM. In [3] (72 h, Probit), the EC50 was 0.05 µg/mL and 50 nM. Further, the “SI (selectivity index = LC50/EC50)” value in data set [3] came out at 722. The compound further had an inhibition of growth at 0.05 µg/mL in data set [4] (dose used 0.05 µg/ml, 72 h) of 62.7 ± 1.4%.
On to `COc1ccc2ccc(=O)oc2c1-c1cocc1C` [C], for which the “EC50 against axenic amastigote forms” value in [1] is 10.5 µg/mL.
The inhibition is the share of the control response that was lost under treatment. Turning to `CCCCCCCCOc1ccc2c(C)c(/C=C/c3ccc(OC)cc3)c(=O)oc2c1` [Compound 3], the CC50 at 72 h in data set [2] is > 200 µg/mL and > 549 µM. Further, the inhibition at 20 µg/mL in data set [4] was 0%.
For `CCCCCCCCOc1ccc2c(C)c(/C=C/c3ccc(OC)c(OC)c3)c(=O)oc2c1` [Compound 4], the CC50 at 72 h in [2] was 26 µg/mL and 66 µM. For the same compound, in [4], the inhibition at 20 µg/mL was 32.5 ± 0.8%.
On to `CCCCCCCCOc1ccc2c(C)c(/C=C/c3ccc(OC)cc3OC)c(=O)oc2c1` [Compound 5], for which the CC50 at 72 h in data set [2] was > 200 µg/mL and > 507 µM. Moreover, the inhibition at 20 µg/mL in data set [4] was 3.7 ± 0.8%.
What is called IC50 is the concentration at which inhibition is half-maximal. For the compound `CCCCCCCCOc1ccc2c(C)c(/C=C/c3ccc(O)c(OC)c3)c(=O)oc2c1` [Compound 6], the CC50 at 72 h in [2] was 19.7 µg/mL and 51.8 µM. Besides, in [3] (72 h, Probit), the concentration giving a half-maximal response (EC50) was 15.4 µg/mL and 40.5 µM. In addition, in data set [3], the “SI (selectivity index = LC50/EC50)” value is listed as 1.2. Also, the “Inhibition intracellular amastigotes growth (%)” value in data set [3] (at 20 µg/ml, 72 h, infected U-937 cells) is reported as 83.5 ± 5.0%. Also, the results for the IC50 in data set [3] (read-out: IC50 against L. (V.) panamensis amastigotes (abstract)), in data set [5] and in [6] were 40.5 µM, 69.8 µM and 26.1 µM, respectively. Further, the inhibition at 20 µg/mL in [4] is more than 83%.
For `CCCCCCCCOc1ccc2c(C)c(/C=C/c3cc(OC)ccc3OC)c(=O)oc2c1` [Compound 7], the CC50 at 72 h in data set [2] is > 200 µg/mL and > 507 µM. Moreover, the inhibition at 20 µg/mL in [4] worked out at 7.1 ± 1.5%.
Turning to `CCCCCCCCOc1ccc2c(C)c(/C=C/c3cc(OC)c(O)c(OC)c3)c(=O)oc2c1` [Compound 8], the CC50 at 72 h in data set [2] is 1 µg/mL and 2.4 µM. For the same compound, testing at 1 µg/mL in data set [4] (dose used 1.0 µg/ml, 72 h) gave an inhibition of growth of 0%.
Take `CCCCCCCCOc1ccc2c(C)c(/C=C/c3ccc4c(c3)OCO4)c(=O)oc2c1` [Compound 9]: the CC50 at 72 h in [2] was > 200 µg/mL and > 529 µM. The inhibition at 20 µg/mL in [4] turned out to be 0%.
Turning to `C=C(C)C1OC1c1c(OC)ccc2ccc(=O)oc12` (centres unmarked) [D], the “EC50 against axenic amastigote forms” value in data set [1] is recorded as 14.1 µg/mL.
As for `CC(=O)OC[C@H]1O[C@@H](Oc2ccc3c(-c4ccccc4)cc(=O)oc3c2)[C@H](OC(C)=O)[C@@H](OC(C)=O)[C@@H]1OC(C)=O` [E], the concentration for half-maximal inhibition (IC50) in [7] was 10 µM; in data set [8], 34.9 µM.
Turning to `COc1ccc(-c2cc(=O)oc3cc(OC)c(OC)cc23)cc1OC` [F], the concentration for half-maximal inhibition (IC50) in data set [9] was 1.1 µM.
As to Meglumine antimoniate, the “Cytotoxicity on U-937 cells LC50” value in [10] was found to be 416.4 ± 66.6 µg/mL. The CC50 in data set [10] (read-out: Cytotoxicity on U-937 cells LC50 (converted)) was 1140 µM. For the same compound, the “Inhibition intracellular amastigotes growth (%)” value in data set [3] (72 h) was 79.4 ± 2.1^ g %. Moreover, in [3] (72 h, Probit), the “Anti-leishmanial activity on intracellular amastigotes EC50” value was determined as 9.4 ± 2.1 µg/mL and the EC50 is 25.7 µM.
